Active and inactive are the calls of the source.
Experiments:
[1] = molecular target: Troponin, cardiac muscle (Homo sapiens, UniProt P19429+P45379+P63316); assay: Fluorescence-based biochemical high throughput dose response assay for activators of the calcium sensitivity of cardiac Regulated Thin Filaments (RTF). [Related pubchem assays (depositor defined):AID493008, AID493018, AID504382, AID504383]; format: protein-complex assay
[2] = molecular target: T1, G-protein coupled receptor 35 (Homo sapiens, UniProt Q9HC97); assay: SAR analysis of Agonists of the GPR35 Receptor using an Image-Based Assay - Set 3. [Related pubchem assays (depositor defined):AID1961, AID1965]; format: functional
T1 sequence (Q9HC97 whole entry): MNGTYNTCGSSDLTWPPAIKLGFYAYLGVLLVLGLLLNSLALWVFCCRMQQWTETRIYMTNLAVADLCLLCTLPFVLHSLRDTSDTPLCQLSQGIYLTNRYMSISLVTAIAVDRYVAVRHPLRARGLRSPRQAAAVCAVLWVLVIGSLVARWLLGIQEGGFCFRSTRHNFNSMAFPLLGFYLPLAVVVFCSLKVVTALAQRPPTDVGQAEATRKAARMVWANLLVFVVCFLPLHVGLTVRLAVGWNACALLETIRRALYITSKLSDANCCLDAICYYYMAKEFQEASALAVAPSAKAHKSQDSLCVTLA

[3] = molecular target: T2, Cannabinoid receptor 2 (Homo sapiens, UniProt P34972); assay: SAR analysis of antagonists of the Cannabinoid Receptor 2 using an Image-Based Assay - Set 2. [Related pubchem assays (depositor defined):AID1961, AID1965]; format: functional
T2 sequence (P34972 whole entry): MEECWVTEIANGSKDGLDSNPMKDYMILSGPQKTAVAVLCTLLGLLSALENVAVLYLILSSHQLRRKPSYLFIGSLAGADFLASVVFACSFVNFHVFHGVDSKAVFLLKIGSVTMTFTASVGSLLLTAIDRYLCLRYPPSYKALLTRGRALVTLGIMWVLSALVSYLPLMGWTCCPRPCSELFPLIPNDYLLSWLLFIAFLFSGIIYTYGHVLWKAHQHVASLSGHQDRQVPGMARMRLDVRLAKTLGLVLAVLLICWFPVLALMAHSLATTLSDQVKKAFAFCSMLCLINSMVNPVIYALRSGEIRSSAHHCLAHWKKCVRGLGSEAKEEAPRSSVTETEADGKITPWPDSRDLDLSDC

[4] = molecular target: G-protein coupled receptor 55 (Homo sapiens, UniProt Q9Y2T6); assay: SAR analysis of selective Agonists of GPR55 using an Image-Based Assay - Set 2. [Related pubchem assays (depositor defined):AID1961, AID1965]; format: functional
Sequence of G-protein coupled receptor 55 (Q9Y2T6 whole entry): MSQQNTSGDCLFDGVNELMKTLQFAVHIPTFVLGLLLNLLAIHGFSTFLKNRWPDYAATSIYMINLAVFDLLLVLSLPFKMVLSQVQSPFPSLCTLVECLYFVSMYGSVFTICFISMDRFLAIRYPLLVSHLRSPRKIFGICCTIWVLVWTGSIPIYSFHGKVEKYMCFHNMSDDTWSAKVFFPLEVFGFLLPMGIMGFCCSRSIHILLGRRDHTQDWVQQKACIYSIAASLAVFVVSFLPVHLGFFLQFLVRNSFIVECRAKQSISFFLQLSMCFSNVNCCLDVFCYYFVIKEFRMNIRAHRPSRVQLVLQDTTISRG

[5] = molecular target: T2, Cannabinoid receptor 2; assay: SAR analysis of agonists of the Cannabinoid Receptor 2 using an Image-Based Assay - Set 2. [Related pubchem assays (depositor defined):AID1961, AID1965]; format: functional
[6] = molecular target: T3, Cannabinoid receptor 1 (Homo sapiens, UniProt P21554); assay: SAR analysis of agonists of the Cannabinoid Receptor 1 using an Image-Based Assay - Set 3. [Related pubchem assays (depositor defined):AID1961, AID1965]; format: functional
T3 sequence (P21554 whole entry): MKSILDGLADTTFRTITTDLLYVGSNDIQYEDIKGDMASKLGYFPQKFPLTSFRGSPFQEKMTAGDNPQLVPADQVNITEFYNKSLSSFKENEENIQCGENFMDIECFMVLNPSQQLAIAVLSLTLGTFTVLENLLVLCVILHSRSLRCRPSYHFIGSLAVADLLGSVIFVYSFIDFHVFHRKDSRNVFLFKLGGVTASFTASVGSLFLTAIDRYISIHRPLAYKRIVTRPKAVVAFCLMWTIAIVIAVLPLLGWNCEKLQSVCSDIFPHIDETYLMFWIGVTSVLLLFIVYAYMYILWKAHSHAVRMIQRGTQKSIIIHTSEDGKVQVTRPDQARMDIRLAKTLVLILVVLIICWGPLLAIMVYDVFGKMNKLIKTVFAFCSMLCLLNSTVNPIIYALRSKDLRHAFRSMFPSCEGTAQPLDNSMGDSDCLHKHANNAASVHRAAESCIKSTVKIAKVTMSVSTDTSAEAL

[7] = molecular target: T1, G-protein coupled receptor 35; assay: SAR analysis of Antagonists of the GPR35 Receptor using an Image-Based Assay - Set 4. [Related pubchem assays (depositor defined):[…]]; format: functional
[8] = molecular target: T3, Cannabinoid receptor 1; assay: SAR analysis of antagonists of the Cannabinoid Receptor 1 using an Image-Based Assay - Set 3. [Related pubchem assays (depositor defined):AID1961, AID1965]; format: functional
[9] = viability of uninfected HEp-2 cells – cell-based, HTS, cytotoxicity control for RSV inhibitor project, dose response (AID 2410); format: functional; settings: human respiratory syncytial virus
[10] = molecular target: T4, Ubiquitin-conjugating enzyme E2 N (Homo sapiens, UniProt P61088); format: functional
T4 sequence (P61088 whole entry): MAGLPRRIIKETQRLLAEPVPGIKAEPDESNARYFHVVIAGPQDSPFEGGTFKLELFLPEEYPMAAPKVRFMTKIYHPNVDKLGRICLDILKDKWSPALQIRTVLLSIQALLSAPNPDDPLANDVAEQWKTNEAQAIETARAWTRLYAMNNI

[11] = molecular target: T4, Ubiquitin-conjugating enzyme E2 N; format: functional; remark: listed apart in the source
[12] = molecular target: Intestinal-type alkaline phosphatase (Homo sapiens, UniProt P09923); assay: human intestinal alkaline phosphatase activators, dose response, biochemical, luminescence, uHTS hits (AID 463120); format: functional
Sequence of Intestinal-type alkaline phosphatase (P09923 whole entry): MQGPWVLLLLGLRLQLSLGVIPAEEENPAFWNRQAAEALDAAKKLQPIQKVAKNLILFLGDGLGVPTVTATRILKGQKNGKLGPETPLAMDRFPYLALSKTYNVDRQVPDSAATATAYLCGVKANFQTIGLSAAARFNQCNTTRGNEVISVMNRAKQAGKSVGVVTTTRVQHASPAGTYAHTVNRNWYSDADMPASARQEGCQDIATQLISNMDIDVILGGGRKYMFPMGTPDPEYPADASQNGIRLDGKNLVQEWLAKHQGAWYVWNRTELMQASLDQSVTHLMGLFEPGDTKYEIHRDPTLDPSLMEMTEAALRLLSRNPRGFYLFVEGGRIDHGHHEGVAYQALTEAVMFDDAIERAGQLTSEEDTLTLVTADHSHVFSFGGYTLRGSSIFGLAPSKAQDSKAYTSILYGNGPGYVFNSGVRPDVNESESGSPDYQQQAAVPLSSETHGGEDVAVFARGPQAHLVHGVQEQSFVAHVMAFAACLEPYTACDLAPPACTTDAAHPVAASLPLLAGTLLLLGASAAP

[13] = molecular target: T5, Bcl-2-related protein A1 (Mus musculus, UniProt Q07440); format: functional;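 also: confirmatory dose–response counterscreen on Bfl-1, used to check hits from a UBC13 polyubiquitin inhibitor campaign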
T5 sequence (Q07440 whole entry): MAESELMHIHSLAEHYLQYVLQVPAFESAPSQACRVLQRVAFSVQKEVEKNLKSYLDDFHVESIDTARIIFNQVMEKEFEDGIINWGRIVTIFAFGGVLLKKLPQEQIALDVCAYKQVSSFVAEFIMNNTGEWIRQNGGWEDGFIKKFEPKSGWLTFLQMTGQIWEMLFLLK

[14] = antiviral efficacy against SV40, host toxicity – BSC cells, set 3, confirmation (AID 485276); format: functional, cell-based
[15] = molecular target: Large T antigen (Simian virus 40, UniProt P03070); assay: A confirmatory biochemical assay using the ADP-Hunter methodology, purified TAg, and ATP to quantify activity of synthesized compounds that inhibit the ATPase activity of Tag (3). [Related pubchem assays (depositor defined):AID1903, AID1909, AID2102, AID2501, AID2615, AID2775, AID435001, AID449729]; parameters: species or system Betapolyomavirus macacae
Sequence of Large T antigen (P03070 whole entry): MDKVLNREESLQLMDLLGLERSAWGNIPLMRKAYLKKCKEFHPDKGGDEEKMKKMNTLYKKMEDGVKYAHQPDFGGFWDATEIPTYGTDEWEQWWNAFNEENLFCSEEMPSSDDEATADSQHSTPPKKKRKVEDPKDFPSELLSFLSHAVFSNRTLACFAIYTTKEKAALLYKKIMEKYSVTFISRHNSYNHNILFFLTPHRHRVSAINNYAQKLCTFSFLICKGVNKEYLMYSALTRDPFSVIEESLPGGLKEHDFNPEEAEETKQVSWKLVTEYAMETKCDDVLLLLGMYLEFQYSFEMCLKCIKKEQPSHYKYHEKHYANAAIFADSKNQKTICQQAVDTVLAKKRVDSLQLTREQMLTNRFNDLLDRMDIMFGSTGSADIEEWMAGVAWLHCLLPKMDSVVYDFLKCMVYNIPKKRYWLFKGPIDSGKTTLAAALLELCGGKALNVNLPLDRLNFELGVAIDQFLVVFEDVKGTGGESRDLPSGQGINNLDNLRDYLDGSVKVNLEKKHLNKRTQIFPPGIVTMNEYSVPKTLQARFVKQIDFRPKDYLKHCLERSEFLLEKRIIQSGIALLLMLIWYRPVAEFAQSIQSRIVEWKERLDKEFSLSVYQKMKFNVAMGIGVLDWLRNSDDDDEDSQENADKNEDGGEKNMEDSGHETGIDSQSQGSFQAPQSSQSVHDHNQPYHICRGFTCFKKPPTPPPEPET

## Cc1sc(NC(=O)CSc2nnc(C(C)C)n2C)c(C#N)c1C
[1]
  EC50: > 71.5 µM (inactive)

## Cc1cccc(N2CCN(C(=O)c3cccc(S(=O)(=O)N4CCCCC4)c3)CC2)c1C
[2]
  EC50: > 32 µM (inactive)
[3]
  IC50: > 32 µM (inactive)
[4]
  EC50: > 32 µM (inactive)
[5]
  EC50: > 32 µM (inactive)
[6]
  EC50: > 32 µM (inactive)
[7]
  IC50: > 32 µM (inactive)
[8]
  IC50: > 32 µM (inactive)

## C#CCOCCOCCOCCNc1nc(N2CCN(C(=O)CCCCCCCCCCNC(=O)[C@H]([C@@H](C)CC)n3cc(CCCCN=C(N)N)nn3)CC2)nc(N2CCN(C(=O)CCCCCCCCCCNC(=O)[C@H](CO)n3cc(CCCSC)nn3)CC2)n1
[9]
  CC50: 13.7 µM (active)
[10]
  IC50: 3.7 µM (active)
[11]
  IC50: 5.99 µM (active)
[12]
  EC50: 40.7 µM (active)
[13]
  IC50: 3.11 µM (active)

## Oc1ccc(Sc2ccc(O)cc2O)c(O)c1
[14]
  IC50: 146 µM (active)
[15]
  IC50: 61.2 µM (active)
